Holding throughout (assay): Ganglioside ELISA
(ELISA stands for enzyme-linked immunosorbent assay.)

The target of one assay is T1, Siglec-7-Fc R124A (Homo sapiens, UniProt Q9Y286, R124A).
T1 construct: the Siglecs as Fc chimeras; made in house; host or cells: WT CHO cells
It is filed as binding. The following applies: Figure 2c, replicates. As to the method: (§1) Siglec-Fc constructs designed by Rodrigues et al.[30] were used in this work. Siglec-Fc constructs were expressed using WT CHO cells in cell culture media as described above with 1% HEPES. Cells incubated as described above for one-week post confluency. The supernatant was harvested and stored at 4 °C.
(§2) The purification was heavily inspired by Rodrigues et al.[30]. The purification of the Siglec-Fcs from supernatant began with Ni^2+ affinity chromatography using an AKTA FPLC equipped with a HisTrap Excel column (GE). The column was equilibrated with fifteen column volumes (CVs) of equilibrium buffer (500 mM NaCl, 20 mM NaPO4H2, pH 7.4). The Siglec-Fc containing supernatant was then loaded in its entirety onto the column. The column was then washed with fifteen CVs of wash buffer (500 mM NaCl, 30 mM imidazole, 20 mM NaPO4H2, pH 7.4). The Siglec-Fc was then eluted in 20 in 1 mL fractions with twenty CVs of elution buffer (500 mM NaCl, 500 mM imidazole, 20 mM NaPO4H2, pH 7.4). Fractions containing Siglec-Fc were compiled and then prepared for the next stage of purification by diluting the fractions 1:4 with buffer W (100 mM Tris–HCl, 150 mM NaCl, 1 mM EDTA, pH 8.0). A Strep-Tactin column (IBA life sciences) was washed with fifteen CVs of buffer W. The Siglec-Fc-buffer W solution was then loaded in its entirety onto the column. The bound Siglec-Fc was then washed with fifteen CVs of buffer W. Siglec-Fc was eluted from the column with 15 column volumes of buffer E (100 mM Tris–HCl, 150 mM NaCl, 1 mM EDTA, 10 mM d-Desthiobiotin, pH 8.0). Fractions containing Siglec-Fc were pooled and dialyzed against PBS to remove any d-Desthiobiotin. After dialysis, Siglec-Fcs were concentrated using an ultra-centrifugal device (30 kDa MWCO) and aliquoted into 5 µg aliquots, and frozen. The Siglec-Fcs were then lyophilized overnight, and the lyophilized Siglec-Fcs were stored at −20 °C.
(§3) Our ELISA approach was carried out similarly to previous work by Rapoport[12] and Yamakawa[44]. Ganglioside ethanol solutions (10 µM) were prepared and then transferred in 50 µL increments to a 96-well microplate. The ethanol was removed by drying the plates overnight at room temperature. The plates were then washed with PBS, dried, and then blocked with 5% (m/V) BSA PBS for 1 h. The plates were then washed with PBS and then 2 µg/mL Siglec-Fc precomplexed to Strep-Tactin (2 Siglec-Fc:1 Strep-Tactin monomer) horse radish peroxidase was added to the microplate. The complex was incubated with the plate at room temperature for 2 h. The unbound complexes were then removed by washing in PBS and the plate was developed with Sera care TMB solution. The amount of binding was then quantified by using the background (microplate well with no ligand) subtracted absorbance at 450 nm using a Molecular Devices SpectraMAX ® iD5.

A further assay addresses Siglec-1-Fc WT (Homo sapiens, UniProt Q9BZZ2). It is filed as binding. As to conditions: Figure 2c, replicates. As to the method: as §1, §2, §3
In another assay the target is T2, Siglec-7-Fc WT (Homo sapiens, UniProt Q9Y286).
T2 construct: the Siglecs as Fc chimeras; made in house; host or cells: WT CHO cells
It counts as binding. As to conditions: Figure 2c, replicates. As to the method: as §1, §2, §3

In the next assay the target is T3, Siglec-6-Fc WT (Homo sapiens, UniProt O43699).
T3 construct: the Siglecs as Fc chimeras; made in house; host or cells: WT CHO cells
It counts as binding. As to conditions: for ganglioside ELISA signal, Siglec-6 WT: Figure 2c, replicates; for ELISA recognition of adsorbed ganglioside by Siglec-6 (in words): ganglioside adsorbed to microplate, outside a bilayer. As to the method: as §1, §2, §3

Another assay has as its target T4, R122A Siglec-6-Fc (Homo sapiens, UniProt O43699, R122A).
T4 construct: the Siglecs as Fc chimeras; made in house; host or cells: WT CHO cells
It counts as binding. The following applies: Figure 2c, replicates. As to the method: as §1, §2, §3

In a further assay the test system is Siglec-1-Fc R116A. It is filed as binding, human. The following applies: Figure 2c, replicates. As to the method: as §1
as §2, with “Fractions containing Siglec-Fc were compiled and then prepared for the next stage of purification by diluting the fractions 1:4 with buffer W (100 mM Tris–HCl, 150 mM NaCl, 1 mM EDTA, pH 8.0).” left out, “The bound Siglec-Fc was then washed with fifteen CVs of buffer W. Siglec-Fc was eluted from the column with 15 column volumes of buffer E (100 mM Tris–HCl, 150 mM NaCl, 1 mM EDTA, 10 mM d-Desthiobiotin, pH 8.0).” left out
as §3

Values joined by “and” are separate entries in the source; they are usually repeats but may differ in a detail not shown here. Equal entries are not always repeated.

T3 sequence (O43699 27-347 limits assumed): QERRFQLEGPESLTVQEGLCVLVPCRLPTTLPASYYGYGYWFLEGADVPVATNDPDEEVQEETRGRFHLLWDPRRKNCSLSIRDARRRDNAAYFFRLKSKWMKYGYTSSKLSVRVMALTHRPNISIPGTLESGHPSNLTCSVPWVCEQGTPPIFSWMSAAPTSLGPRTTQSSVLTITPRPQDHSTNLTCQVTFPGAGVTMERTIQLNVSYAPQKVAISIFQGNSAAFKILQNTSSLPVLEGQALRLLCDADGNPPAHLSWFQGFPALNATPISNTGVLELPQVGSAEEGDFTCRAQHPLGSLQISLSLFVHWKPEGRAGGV
T2 sequence (Q9Y286 19-353 limits assumed): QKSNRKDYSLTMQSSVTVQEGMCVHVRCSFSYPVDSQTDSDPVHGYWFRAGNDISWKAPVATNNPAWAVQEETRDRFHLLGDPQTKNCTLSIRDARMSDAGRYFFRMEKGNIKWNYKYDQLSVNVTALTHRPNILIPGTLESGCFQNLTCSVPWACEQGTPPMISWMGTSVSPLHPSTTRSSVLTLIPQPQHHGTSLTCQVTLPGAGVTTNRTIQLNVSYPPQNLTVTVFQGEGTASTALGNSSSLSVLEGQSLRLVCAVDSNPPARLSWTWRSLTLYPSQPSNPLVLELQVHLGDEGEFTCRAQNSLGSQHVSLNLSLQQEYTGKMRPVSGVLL
T4 sequence (O43699 27-347 R122A limits assumed): as the sequence (O43699 27-347 limits assumed) above, with R96A counted along it
T1 sequence (Q9Y286 19-353 R124A limits assumed): as the sequence (Q9Y286 19-353 limits assumed) above, with R106A counted along it
Chain of Siglec-1-Fc WT (Q9BZZ2 20-136 limits assumed): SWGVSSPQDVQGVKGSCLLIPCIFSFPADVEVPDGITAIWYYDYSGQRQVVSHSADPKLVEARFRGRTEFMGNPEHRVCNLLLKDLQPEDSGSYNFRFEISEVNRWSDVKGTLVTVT
Chain of Siglec-1-Fc R116A (Q9BZZ2 20-136 R116A limits assumed): as the sequence (Q9BZZ2 20-136 limits assumed) above, with R97A counted along it

With GD3, on Siglec-7-Fc R124A, the “ganglioside ELISA signal, Siglec-7 R” value is 0.01 and -0.01 and -0.02. The “ganglioside ELISA signal, Siglec-1 WT” value on Siglec-1-Fc WT was 0.76 and 0.85 and 0.8 and 0.82. The “ganglioside ELISA signal, Siglec-7 WT” value at Siglec-7-Fc WT is 0.74 and 0.73 and 0.7 and 0.66. Further, on Siglec-6-Fc WT, the “ganglioside ELISA signal, Siglec-6 WT” value was 0.04 and 0.09 and 0.03; the “ELISA recognition of adsorbed ganglioside by Siglec-6 (in words)” value (“ELISA recognition” for short) is “did not recognize”. For the same compound, the “ganglioside ELISA signal, Siglec-6 R” value at R122A Siglec-6-Fc is 0.22 and 0.2. In addition, the “ganglioside ELISA signal, Siglec-1 R” value in the assay with Siglec-1-Fc R116A was 0.22 and 0.18 and 0.24 and 0.28.
GD1b: the “ganglioside ELISA signal, Siglec-7 R” value at Siglec-7-Fc R124A is 0 and -0.01 and -0.02. The “ganglioside ELISA signal, Siglec-1 WT” value on Siglec-1-Fc WT is 0.52 and 0.66 and 0.64 and 0.62. Further, the “ganglioside ELISA signal, Siglec-7 WT” value on Siglec-7-Fc WT was 0.41 and 0.39 and 0.38. Besides, at Siglec-6-Fc WT, the “ganglioside ELISA signal, Siglec-6 WT” value was -0.04 and 0.01. Further, the “ganglioside ELISA signal, Siglec-6 R” value on R122A Siglec-6-Fc is 0.07 and 0.09 and 0.06 and 0.08. Also, the “ganglioside ELISA signal, Siglec-1 R” value in the assay with Siglec-1-Fc R116A was 0.11 and 0.13 and 0.17.
Take GM3: the “ganglioside ELISA signal, Siglec-7 R” value on Siglec-7-Fc R124A is -0.02 and 0. Moreover, on Siglec-1-Fc WT, the “ganglioside ELISA signal, Siglec-1 WT” value was 0.99 and 1.04 and 1.15 and 1.05. Moreover, at Siglec-7-Fc WT, the “ganglioside ELISA signal, Siglec-7 WT” value was 0.61 and 0.6 and 0.68 and 0.7. Further, on Siglec-6-Fc WT, the “ganglioside ELISA signal, Siglec-6 WT” value is 0.27 and 0.3 and 0.26; the “ELISA recognition” value is “interacted weakly”. For the same compound, the “ganglioside ELISA signal, Siglec-6 R” value at R122A Siglec-6-Fc was 0.34 and 0.37 and 0.41 and 0.4. Moreover, the “ganglioside ELISA signal, Siglec-1 R” value in the assay with Siglec-1-Fc R116A was 0.33 and 0.4 and 0.43 and 0.46.
For the compound GT1b, the “ganglioside ELISA signal, Siglec-7 R” value at Siglec-7-Fc R124A is -0.01 and -0.02. The “ganglioside ELISA signal, Siglec-1 WT” value on Siglec-1-Fc WT was 0.25 and 0.3 and 0.43 and 0.46. The “ganglioside ELISA signal, Siglec-7 WT” value on Siglec-7-Fc WT was 0.49 and 0.55 and 0.5. Also, at Siglec-6-Fc WT, the “ganglioside ELISA signal, Siglec-6 WT” value is -0.04 and -0.01 and -0.09 and -0.11; the “ELISA recognition” value is listed as “did not recognize”. The “ganglioside ELISA signal, Siglec-6 R” value at R122A Siglec-6-Fc was 0.11 and 0.08 and 0.1 and 0.13. In the assay with Siglec-1-Fc R116A, the “ganglioside ELISA signal, Siglec-1 R” value is 0.02 and 0.04 and 0.03.
On to GM1, for which, on Siglec-7-Fc R124A, the “ganglioside ELISA signal, Siglec-7 R” value was 0 and -0.01 and 0.03. Further, the “ganglioside ELISA signal, Siglec-1 WT” value on Siglec-1-Fc WT is 0.39 and 0.55 and 0.5 and 0.54. The “ganglioside ELISA signal, Siglec-7 WT” value on Siglec-7-Fc WT was 0.04 and 0.05 and 0.01 and 0.03. At Siglec-6-Fc WT, the “ganglioside ELISA signal, Siglec-6 WT” value is -0.03 and -0.04 and -0.05 and -0.02; the “ELISA recognition” value is given as “did not recognize”. Moreover, the “ganglioside ELISA signal, Siglec-6 R” value at R122A Siglec-6-Fc was 0.02 and 0.03. Also, the “ganglioside ELISA signal, Siglec-1 R” value in the assay with Siglec-1-Fc R116A was 0.07 and 0.08 and 0.1 and 0.14.
GQ1b: the “ganglioside ELISA signal, Siglec-7 R” value on Siglec-7-Fc R124A is -0.01 and 0. The “ganglioside ELISA signal, Siglec-1 WT” value on Siglec-1-Fc WT is 0.15 and 0.21 and 0.24 and 0.23. In addition, on Siglec-7-Fc WT, the “ganglioside ELISA signal, Siglec-7 WT” value is 0.66 and 0.63 and 0.69. At Siglec-6-Fc WT, the “ganglioside ELISA signal, Siglec-6 WT” value was -0.1 and -0.02 and -0.09 and -0.12; the “ELISA recognition” value is recorded as “did not recognize”. The “ganglioside ELISA signal, Siglec-6 R” value at R122A Siglec-6-Fc was 0.11 and 0.1 and 0.13 and 0.12. The “ganglioside ELISA signal, Siglec-1 R” value with Siglec-1-Fc R116A is -0.01 and -0.02 and 0.
Take GD1a: the “ganglioside ELISA signal, Siglec-7 R” value at Siglec-7-Fc R124A was 0.05 and 0 and -0.01. Besides, the “ganglioside ELISA signal, Siglec-1 WT” value at Siglec-1-Fc WT is 0.75 and 1.01 and 0.87. On Siglec-7-Fc WT, the “ganglioside ELISA signal, Siglec-7 WT” value is 0.27 and 0.32 and 0.24 and 0.37. For the same compound, on Siglec-6-Fc WT, the “ganglioside ELISA signal, Siglec-6 WT” value was -0.08 and 0.02 and 0.01 and -0.06; the “ELISA recognition” value is on record as “did not recognize”. The “ganglioside ELISA signal, Siglec-6 R” value on R122A Siglec-6-Fc was 0.08 and 0.06 and 0.05. Besides, the “ganglioside ELISA signal, Siglec-1 R” value with Siglec-1-Fc R116A was 0.06 and 0.08 and 0.11 and 0.09.
Consider GM4, for which the “ganglioside ELISA signal, Siglec-7 R” value on Siglec-7-Fc R124A is -0.01 and 0 and -0.02. In addition, the “ganglioside ELISA signal, Siglec-1 WT” value on Siglec-1-Fc WT was 0.62 and 0.66 and 0.72 and 0.59. Also, the “ganglioside ELISA signal, Siglec-7 WT” value on Siglec-7-Fc WT is 0.52 and 0.45 and 0.53 and 0.58. Further, on Siglec-6-Fc WT, the “ganglioside ELISA signal, Siglec-6 WT” value was 0.22 and 0.25 and 0.27 and 0.23; the “ELISA recognition” value is on record as “interacted weakly”. Besides, the “ganglioside ELISA signal, Siglec-6 R” value on R122A Siglec-6-Fc is 0.26 and 0.23 and 0.24 and 0.28. Further, the “ganglioside ELISA signal, Siglec-1 R” value with Siglec-1-Fc R116A was 0.18 and 0.21 and 0.26 and 0.27.
For the compound `CCCCCCCCCCCCCCCCOCC(COCCCCCCCCCCCCCCCC)OCc1cn(CCO[C@@H]2O[C@H](CO)[C@@H](O[C@@H]3O[C@H](CO)[C@H](O)[C@H](O[C@]4(C(=O)O)C[C@H](O)[C@@H](NC(C)=O)[C@H]([C@H](O)[C@H](O)CO)O4)[C@H]3O)[C@H](O)[C@H]2O)nn1` [nGL 5], the “fold difference in binding to Siglec-6 between 5 and GM3” value at Siglec-6-Fc WT (by ELISA) is listed as 1.5 fold.
As for GM2, the “ganglioside ELISA signal, Siglec-7 R” value on Siglec-7-Fc R124A is -0.01 and 0 and -0.02. Moreover, at Siglec-1-Fc WT, the “ganglioside ELISA signal, Siglec-1 WT” value was 0.89 and 1.09 and 1.03 and 1.06. In addition, the “ganglioside ELISA signal, Siglec-7 WT” value at Siglec-7-Fc WT was 0.12 and 0.09 and 0.1 and 0.06. In addition, the “ganglioside ELISA signal, Siglec-6 WT” value at Siglec-6-Fc WT is 0 and 0.04 and 0.02 and 0.03. Besides, on R122A Siglec-6-Fc, the “ganglioside ELISA signal, Siglec-6 R” value was 0.04 and 0.05 and 0.06 and 0.07. In addition, the “ganglioside ELISA signal, Siglec-1 R” value with Siglec-1-Fc R116A was 0.07 and 0.09 and 0.15 and 0.11.

(Values after paper PMC10122656, “Siglec-6 mediates the uptake of extracellular vesicles through a noncanonical glycolipid binding pocket” (Nature Communications, 2023).)
